Assay [1] concerns the target ATP-dependent molecular chaperone HSC82 (Saccharomyces cerevisiae S288c, UniProt P15108). Briefly: Inhibitory concentration against ATPase activity of Hsp90 of Saccharomyces cerevisiae was determined by ATPase activity assay.
In assay [2] the test system is HCT-116. Put plainly: Inhibitory concentration against cell proliferation of human HCT116 cell. Format: functional.
For assay [3], the system named is HCT-116. Briefly: Inhibitory concentration against cell proliferation of human HCT116 cells. Format: functional.
The target of assay [4] is Heat shock protein HSP 90-alpha (Homo sapiens, UniProt P07900). Briefly: Inhibitory concentration against activity of Hsp90 was determined by fluorescence polarization (FP) assay. For orientation: In fluorescence polarisation assays a small probe gives low polarisation when free and higher when bound to something large.
Setting [5] is: Homo sapiens, HCT-116, read-out: GI50.

Experimental findings from ChEMBL document CHEMBL1140283, “Novel, potent small-molecule inhibitors of the molecular chaperone Hsp90 discovered through structure-based design” (J Med Chem, 2005) are described below.

Chain of ATP-dependent molecular chaperone HSC82 (P15108 whole entry): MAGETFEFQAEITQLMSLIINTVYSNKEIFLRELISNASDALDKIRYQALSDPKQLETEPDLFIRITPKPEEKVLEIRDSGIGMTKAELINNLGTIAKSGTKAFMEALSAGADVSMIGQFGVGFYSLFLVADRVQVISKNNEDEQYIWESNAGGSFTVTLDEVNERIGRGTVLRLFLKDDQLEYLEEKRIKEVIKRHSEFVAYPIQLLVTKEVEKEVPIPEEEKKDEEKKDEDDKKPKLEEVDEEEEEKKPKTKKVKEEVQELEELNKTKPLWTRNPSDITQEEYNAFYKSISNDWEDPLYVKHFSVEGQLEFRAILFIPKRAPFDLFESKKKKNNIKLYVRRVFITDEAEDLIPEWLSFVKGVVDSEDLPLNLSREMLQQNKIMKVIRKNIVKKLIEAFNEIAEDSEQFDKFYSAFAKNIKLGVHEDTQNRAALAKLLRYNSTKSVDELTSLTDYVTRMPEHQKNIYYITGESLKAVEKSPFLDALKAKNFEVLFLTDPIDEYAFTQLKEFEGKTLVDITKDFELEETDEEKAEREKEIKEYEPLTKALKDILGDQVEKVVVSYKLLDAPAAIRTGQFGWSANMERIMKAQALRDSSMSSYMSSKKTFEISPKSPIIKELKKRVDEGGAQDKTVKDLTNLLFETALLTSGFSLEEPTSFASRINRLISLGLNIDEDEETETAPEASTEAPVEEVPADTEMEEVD

`C[C@@H]1C[C@H]2O[C@@H]2/C=C\C=C\C(=O)Cc2c(Cl)c(O)cc(O)c2C(=O)O1` [RADICICOL]: the IC50 in assay [1] amounted to 200 nM. Further, the GI50 in assay [2] was determined as 130 nM.
As for `COc1ccc(-c2c(C)n[nH]c2-c2cc(Br)c(O)cc2O)cc1`, the values for the IC50 in assay [1] and in assay [4] were 1900 nM and 62 nM, respectively. For the same compound, in assay [3] (setting [5]), the concentration for 50% growth inhibition (GI50) is 6100 nM.
In assay [1], `CCNC(=O)c1[nH]nc(-c2cc(Cl)c(O)cc2O)c1-c1ccc(OC)cc1` registered an IC50 of 140 nM.
In the case of `COc1ccc(-c2c(-c3cc(Cl)c(O)cc3O)n[nH]c2C(=O)O)cc1`, the IC50 in assay [1] was determined as 2300 nM; in assay [4], 510 nM. This compound also came in with a GI50 in assay [3] above 80000 nM.
As for `CCc1cc(-c2n[nH]c(C)c2-c2ccc3c(c2)OCCO3)c(O)cc1O`, in assay [1], the concentration for half-maximal inhibition (IC50) was 5700 nM. In addition, the GI50 in assay [3] (setting [5]) turned out to be 5800 nM.
Turning to `CCNC(=O)c1[nH]nc(-c2cc(Br)c(O)cc2O)c1-c1ccc(OC)cc1`, the IC50 in assay [1] was found to be 390 nM. Also, the concentration for 50% growth inhibition (GI50) in assay [3] (setting [5]) came to 938 nM.
Regarding `COc1ccc(-c2c(-c3cc(Cl)c(O)cc3O)n[nH]c2C(=O)NC(C)C)cc1`, the IC50 in assay [1] came to 1500 nM; in assay [4] it was 120 nM. For the same compound, the GI50 in assay [3] (setting [5]) was determined as 1900 nM.
For the compound `CNC(=O)c1[nH]nc(-c2cc(Cl)c(O)cc2O)c1-c1ccc(OC)cc1`, the IC50 in assay [1] came out at 110 nM; in assay [4] it was 39 nM. For the same compound, the GI50 in assay [3] (setting [5]) was 680 nM.
For `COc1ccc(-c2c(C)n[nH]c2-c2cc(Cl)c(O)cc2O)cc1` the same measures were 1700 nM, 150 nM and 6700 nM.
In the case of `COc1ccc(-c2c(-c3cc(Cl)c(O)cc3O)n[nH]c2C(N)=O)cc1`, the IC50 in assay [1] came to 420 nM; in assay [4], 53 nM. Further, the GI50 in assay [3] (setting [5]) is 1100 nM.
`C=CCNC1=C2C[C@@H](C)C[C@H](OC)[C@H](O)[C@@H](C)/C=C(\C)[C@H](OC(N)=O)[C@@H](OC)/C=C\C=C(/C)C(=O)NC(=CC1=O)C2=O` [TANESPIMYCIN]: it took 13400 nM to reach half-maximal inhibition in assay [1] (IC50). Besides, growth in assay [2] was halved (GI50) at 160 nM.
As for `Cc1n[nH]c(-c2ccc(O)cc2O)c1-c1ccc2c(c1)OCCO2`, the values for the IC50 in assay [1] and in assay [4] were 23000 nM and 4730 nM, respectively. In addition, the 50% growth inhibitory concentration (GI50) in assay [3] (setting [5]) is 34800 nM.
For the compound `COc1ccc(-c2c(-c3ccc(O)cc3O)n[nH]c2C)cc1`, it took 36900 nM to reach half-maximal inhibition in assay [1] (IC50). Further, the GI50 in assay [3] (setting [5]) came to 33300 nM.
`Cc1[nH]nc(-c2cc(Cl)c(O)cc2O)c1-c1ccc2c(c1)OCCO2`: in assay [1], it took 650 nM to reach half-maximal inhibition (IC50). For the same compound, in assay [3] (setting [5]), the GI50 was determined as 14900 nM.

In general, IC50 refers to the concentration that inhibits the measured activity by half. Low values mean inhibition by little substance, high ones a need for much substance. A word on the GI50: it is the concentration giving 50% growth inhibition.
